Earlier results as cited in patent US5362498A, “Process for preparing a bioadhesive pharmaceutical dosage form and pharmaceutical dosage form thus prepared” (priority 1990, dated 1994).

Details: metabolite produced by digestive tract absorption of morphinic active principles

CN1CC[C@]23c4c5ccc(O)c4O[C@H]2[C@@H](O[C@@H]2O[C@H](C(=O)O)[C@@H](O)[C@H](O)[C@H]2O)C=C[C@H]3[C@H]1C5 [morphine 6-glucuronide]
relative potency: 1.5 times
